Results: ChEMBL document CHEMBL1151208, “Cytotoxic flavonoids and alpha-pyrones from Cryptocarya obovata” (J Nat Prod, 2004)
Activity calls are given as the source filed them. The rule behind the calls is not given here.

Tested on: KB
Experiment: Cytotoxicity against human KB cells
Format: functional, cell-based

Compound	Activity	IC50 [µM]
CCOC(=O)CCC[C@@H]1C[C@H]2C[C@](/C=C/c3ccccc3)(Oc3cc4c(c(O)c32)C(=O)C[C@@H](c2ccccc2)O4)O1	inactive	
CCOC(=O)CCC[C@@H]1C[C@H]2C[C@](/C=C/c3ccccc3)(Oc3cc4c(c(O)c32)C(=O)C[C@H](c2ccccc2)O4)O1	inactive	
O=C1C=CC[C@H](C[C@@H]2C[C@H]3C[C@](/C=C/c4ccccc4)(Oc4c(C(=O)/C=C/c5ccccc5)c(O)cc(O)c43)O2)O1 [OBOCHALCOLACTONE]		5
O=C1C=C(/C=C/c2ccccc2)O[C@H](C[C@H]2CC=CC(=O)O2)C1 [OBOLACTONE]		3
